# Assay results: patent EP0345100A1, “Preparation of PAF receptors and method of quantity determination of PAF” (INSTITUT PASTEUR, priority 1988, dated 1989)
# Biological target: T1, récepteur du PAF (Oryctolagus cuniculus, UniProt G1TEI7)
# T1 construct: préparation membranaire de plaquettes de lapin; from tissue; host or cells: rabbit blood platelets, lysed by freeze/thaw, membrane pellet
# Assay: Competitive binding of [³H]PAF to rabbit platelet membrane preparations (radioreceptor assay, vacuum filtration)
# Set-up: species or system lapin
# Protocol: - 1 Aliquot de préparation membranaire de plaquettes de lapin (A) - 1 Aliquot de préparation de récepteur du PAF conforme à l'invention (B), - PAF marqué au Tritium, activité spécifique 56 Ci/mmole (DU PONT DE NEMOURS (Boston MA, USA).) - PAF non marqué (BACHEM, Budendorf, Suisse).
# Des aliquots de préparations membranaires de plaquettes de lapin (∼100 µg) sont incubés pour un volume final de 200 µl de solution contenant 1 nM de /³H/PAF (15300 cpm) et soit une quantité de PAF non marqué connue (gamme de référence), soit un aliquot de dilution de l'extrait à doser. […]
# Les filtres sont placés dans des fioles de comptage avec 4 ml de liquide scintillant (Atomlight NEN). La radioactivité est quantifiée sur compteur à scintillation LKB Rack beta 1214.
# La différence entre la quantité de [³H]PAF lié aux membranes en absence et en présence d'un excès de PAF non marqué (1000 x [³H] PAF) est considérée comme liaison spé-cifique maximale (B˙). […]
# 4.2. […] Le pourcentage de [³H ]PAF lié spécifiquement aux préparations en présence de ces différentes concentrations est déterminé par rapport à la quantité de [³H ]PAF lié spécifiquement en absence de PAF standard non marqué (B/Bo : B : cpm de [³H ]PAF lié aux membranes en pré-sence de PAF standard (liaison non spécifique déduite). Bo : cpm de [³H ]PAF lié aux membranes en absence de PAF standard (liaison non spécifique déduite). […]
# T1 sequence (G1TEI7 1-342): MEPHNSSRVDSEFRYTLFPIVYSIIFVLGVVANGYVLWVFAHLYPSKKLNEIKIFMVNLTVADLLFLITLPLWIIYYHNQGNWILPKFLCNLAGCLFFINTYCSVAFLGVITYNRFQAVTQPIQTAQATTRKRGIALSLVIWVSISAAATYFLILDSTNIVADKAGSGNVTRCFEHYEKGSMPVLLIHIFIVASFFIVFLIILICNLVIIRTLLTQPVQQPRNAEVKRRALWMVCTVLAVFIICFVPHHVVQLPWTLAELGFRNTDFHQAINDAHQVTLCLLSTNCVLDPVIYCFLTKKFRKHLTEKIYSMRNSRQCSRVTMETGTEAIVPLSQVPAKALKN
Compound,"reconnaissance par le site de liaison utilisé pour le dosage (dose maximale testée : 10⁻⁶M, Figure 2 (B/Bo))","ED₅₀ (dose de PAF standard nécessaire pour inhiber 50 % de la liaison spécifique) (1 nM [³H]PAF, + 4° C, 1 heure 30, four experiments taken at random)"
CCCCCCCCCCCCCCCCOC[C@@H](O)COP(=O)([O-])OCC[N+](C)(C)C [lyso-PAF],ne sont pas reconnus,
1-0-alkyl-2-acétyl-sn-glycérol-3-phosphorylcholine [PAF standard],,"0,63 + 0,15 ng/tube"
